# Reference: patent US7531164B2 (priority 2005, dated 2009)
# What was measured:
# AMLV = assay type: cell-based; settings: AMLV envelope
# VSV = assay type: cell-based
# HIV (denoted NL4-3) = assay type: cell-based; settings: NL4-3 envelope
# [1] = Working Example IV: beta agonist response in heart failure patient; assay type: in vivo, human; settings: 0.1 mg/kg LNMA for 24 hours; improves from 3 L/min
# Protocol: A person with heart failure is admitted to a hospital for a dobutamine holiday (where a congestive heart failure patient spends 1-2 days in the hospital to receive a dobutamine drip every month or so). The patient is administered 0.1 mg/kg LNMA for 24 hours. Beta agonist sensitive response as measured by cardiac output improves from 3 L/min. to 3.5 L/min.
# [2] = Working Example XII: atherosclerosis patient, anti-VEGFR plus NO inhibitor/scavenger; assay type: in vivo, human; settings: 2 gms/day L-NMA or 10 mg/day vitamin B-12 with 100 mg/kg anti-VEGFR three times a week; six months later
# Protocol: A person with atherosclerosis is administered 100 mg/kg anti-VEGFR three times a week via infusion and 2 gms/day of L-NMA or 10 mg/day vitamin B-12.
# [3] = test system: EGFR expressing metastatic colorectal cancer; assay: Working Example XIII: EGFR expressing metastatic colorectal cancer patient; assay type: in vivo, human; settings: 5 gm L-NMA or 10 mg vitamin B12 infused concurrently with cebuximab
# Protocol: A person with EGFR expressing metastatic colorectal cancer is given an initial loading dose of 400 mg/m^2 cebuximab as a 120 minute infusion at 2.5 mL/min with weekly maintenance doses of 250 mg/M^2 over 60 minutes at 2.5 mL/min. Concurrently the patient is infused with 5 gm L-NMA or 10 mg vitamin B12.
# hepatitis C = assay: Working Example XI: transfusion of hepatitis C infected whole blood containing L-NMA; assay type: in vivo, human; settings: whole blood containing 1 gm L-NMA per unit, infected with hepatitis C
# Excerpt: Whole blood containing 1 gm L-NMA per unit is transfused into a patient.
# colon cancer = assay: Working Example III: prophylaxis of colon cancer in immunocompromised patient; assay type: in vivo, human; settings: 5 gm LNMA or 10 mg vitamin B12 infused concurrently with cetuximab; two years later
# Protocol: An immunocompromised patient at risk for colon cancer is given an initial loading dose of 200 mg/M^2 cetuximab as a 120 minute infusion with weekly maintenance doses of 125 mg/M^2 over 60 minutes weekly. Perfusion rate is 4 mL/min. Concurrently the patient is infused with 5 gm LNMA or 10 mg vitamin B12.
# For each 50 ml vial: • 100 mg cetuximab • at a concentration of 2 mg/ml • 1mg LNMA or 2 mg Vitamin B-12 • 8.48 mg/ml sodium chloride • 1.88 mg/ml sodium phosphate dibasic heptahydrate • 0.42 mg/ml sodium phosphate monohydrate • water for injection to […]
# The composition is administered in the case of Working Example III.
# [4] = Working Example V: asthma exacerbation frequency; assay type: in vivo, human; settings: 1 gm/day LNMA four times a week for a year; normally four exacerbations of asthma per year
# Excerpt: An asymptomatic person who normally has four exacerbations of asthma per year is given 1 gm/day LNMA four times a week for a year. Exacerbation frequency decreases to once a year.
# influenza A = assay: Working Example XVII: prophylaxis in immunocompromised patient exposed to influenza; assay type: in vivo, human; settings: 5 gms/day L-NMA p.o. for one week, then amantadine 100 mg p.o. b.i.d. for two weeks
# Protocol: An immunocompromised patient is exposed to a patient diagnosed with influenza. The patient is given 5 gms/day L-NMA p.o. After one week the patient tests positive for influenza A and L-NMA administration is stopped and the patient is given amantadine, 100 mg p.o., b.i.d. for two weeks.
# [5] = Working Example XIV: unstable angina patient, abciximab plus NO inhibitor/scavenger; assay type: in vivo, human; settings: L-NMA (5g) or 10 mg vitamin B-12 IV with abciximab and heparin; at 30 days
# Protocol: A patient with unstable angina presents to the emergency room.
# Abciximab is administered at 0.25 mg/kg as an intravenous bolus followed by infusion of […] for 12 hours. Heparin is concurrently administered in a different line with an initial dosage of 70 μg/kg with continuing infusion to maintain ACT of 200-300.
# L-NMA (5g) or 10 mg vitamin B-12 is administered IV through a different line.
# Need for urgent revascularization is only 2% at 30 days.
# HIV = assay: Working Example I: prophylaxis after exposure to HIV positive partner; assay type: in vivo, human; settings: 1 gm L-NMMA Q 6 hrs for 3 days with AZT 600 mg; day 7
# Protocol: A person finds that their partner the previous night is HIV positive. They present to the Emergency Room where they are given a prophylactic dose of AZT (600 mg dose) and a dose of 1 gm L-NMMA Q 6 hrs for 3 days. Blood titers for HIV are restive at day 7.
# E.coli and HIV = assay: Working Example II: prophylaxis after exposure to blood infected by E.coli and HIV; assay type: in vivo, human; settings: B12 10 mg with AZT 600 mg and ampicillin 1 gm for 6 days; at a week
# Protocol: A patient is exposed to blood infected by “E.coli” and HIV following coronary artery bypass surgery. AZT (prophylactic dose of 600 mg) and B12 (which scavenges NO) (dose 10 mg) are given in combination with ampicillin (prophylactic dose of 1 gm) for 6 days Bacterial and HIV titer are undetectable at a week.
# [6] = compared to envelope protein with no anti-CD4 or inhibitor
Structure (SMILES),"Mean (cells infected) (AMLV; […], no-inhibitor AMLV mean 164904)",% Infection (AMLV; [6]) [%],% Infection (VSV) [%],Mean (cells infected) (VSV),"Mean (cells infected) (HIV (denoted NL4-3); […], no-inhibitor NL4-3 mean 108400, cells only 66)",% Infection (HIV (denoted NL4-3); [6]) [%],Beta agonist sensitive response as measured by cardiac output [1] [L/min],plaque destabilization and heart attack [2],disease related symptoms [3],development of hepatitis C (hepatitis C),colon cancer status (colon cancer),Exacerbation frequency [4],Flu symptoms (influenza A),Need for urgent revascularization [5] [%],Blood titers for HIV (HIV),Bacterial and HIV titer (E.coli and HIV)
"COC(=O)[C@@H](N)CCCNC(=N)N[N+](=O)[O-] [Inhibitor A, N^G-nitro-L-arginine methyl ester]",60090,36.4,41.9,120209,50359,46.5,,,,,,,,,,
"CNC(=N)NCCC[C@H](N)C(=O)O [L-NMA, L-methylarginine]",,,,,,,3.5,plaque is not destabilized and no heart attack has occurred,Improvement in disease related symptoms is noted,does not develop hepatitis C,colon cancer free,once a year,Flu symptoms disappear,2,restive,
"C/C1=C2/[N-][C@H]([C@H](CC(N)=O)[C@@]2(C)CCC(=O)NC[C@@H](C)OP(=O)([O-])O[C@H]2[C@@H](O)[C@@H](n3cnc4cc(C)c(C)cc43)O[C@@H]2CO)[C@]2(C)N=C(/C(C)=C3N=C(/C=C4N=C1[C@@H](CCC(N)=O)C\4(C)C)[C@@H](CCC(N)=O)[C@]\3(C)CC(N)=O)[C@@H](CCC(N)=O)[C@]2(C)CC(N)=O.[Co+3].[OH-] [vitamin B12, hydroxocobalamin]",,,,,,,,plaque is not destabilized and no heart attack has occurred,Improvement in disease related symptoms is noted,,colon cancer free,,,2,,undetectable
